Experimental data reported in article PMC10541198, “Specific quinone reductase 2 inhibitors reduce metabolic burden and reverse Alzheimer’s disease phenotype in mice” (The Journal of Clinical Investigation, 2023).
“And” between values parts separate entries of the source, which are not always exact repeats. Equal values may be shown once.

Test system: QR2Δ HCT116 cells
Assay: H2DCFDA detection of cellular ROS in QR2 KO cells
Format: cell-based, human
Details: 20 μM, 3 hour
Method: To establish direct target engagement and cell membrane permeability, a cellular thermal shift assay (CETSA) was carried out, using leading QR2is YB’s-537, 800, and 808. Following a 1 hour preincubation with 5 μM of the QR2is or vehicle, thermal aggregation curves (Taggs) of QR2 expressed in HEK293T were measured in increasing temperatures. All QR2is increased QR2 thermal stability compared with vehicle (Supplemental Figure 2A). Based on the Tagg curves we selected 73°C for isothermal dose-response fingerprint (IDTRF) experiments (Supplemental Figure 2B). The ITDRF allowed the relative quantification of the binding of each of the QR2is to QR2, measured as the EC50 (Figure 3A). […] We evaluated the safety of the QR2is using cell toxicity and viability assays. […] Cell viability was assessed by XTT assay in HEK239T cells, using a dose response, with 3- or 24-hour incubations of the leading QR2is. […] We then assessed WT HCT116 cells by immunoblot (Supplemental Figure 2, C and D), after being treated with YB-800 (2 μM) for 4 consecutive days. […]
The cells wer e har ves t ed a nd resuspended in 1% cl ear m e di um ( DM EM – with no phenol red, suppl em ent ed with 1% FBS, 1% L-Glutamine and 1% Penicillin-Streptomycin). […] The plate wa s then incubated in the dark at 37°C f or 3 h, before reading in a Tecan M200 Pro florescence microplate reader, using wavelengths Ex/Em = 485 nm / 535 nm . […]

Cc1ccc(-c2cn3cccc(C)c3n2)cc1S(=O)(=O)N1CCC(C)CC1 [YB-800]
ROS levels (replicates): 0.1657 and -0.09332 and -0.11 and 0.01889 and -0.0308
